From ChEMBL document CHEMBL1201861, “Genomics of Drug Sensitity in Cancer screening data, Wellcome Trust Sanger Institute”

Legend:
Type in all cases: functional, cell-based
CP67-MEL = experiment: SANGER: Inhibition of human CP67-MEL cell growth in a cell viability assay.
EW-12 = experiment: SANGER: Inhibition of human EW-12 cell growth in a cell viability assay.
KP-N-RT-BM-1 = experiment: SANGER: Inhibition of human KP-N-RT-BM-1 cell growth in a cell viability assay.
NCI-H128 = experiment: SANGER: Inhibition of human NCI-H128 cell growth in a cell viability assay.
NCI-H2107 = experiment: SANGER: Inhibition of human NCI-H2107 cell growth in a cell viability assay.
RL95-2 = experiment: cells; settings: Homo sapiens;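 further: RL95-2 growth inhibition determined through a cell viability readout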
Description: SANGER: Inhibition of human RL95-2 cell growth in a cell viability assay.

SKM-1 = experiment: SANGER: Inhibition of human SKM-1 cell growth in a cell viability assay.
EPLC-272H = experiment: cells; settings: Homo sapiens
Description: SANGER: Inhibition of human EPLC-272H cell growth in a cell viability assay.

H-EMC-SS = experiment: cells; settings: Homo sapiens
Description: SANGER: Inhibition of human H-EMC-SS cell growth in a cell viability assay.

KNS-62 = experiment: cells; settings: Homo sapiens;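 further: inhibition of cell growth, read out with a cell viability assay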
Description: SANGER: Inhibition of human KNS-62 cell growth in a cell viability assay.

LU-135 = experiment: cells; settings: Homo sapiens
Description: SANGER: Inhibition of human LU-135 cell growth in a cell viability assay.

NBsusSR = experiment: cells; settings: Homo sapiens;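 further: growth inhibition of the human cell line, read out with a cell viability assay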
Description: SANGER: Inhibition of human NBsusSR cell growth in a cell viability assay.

NCI-H1048 = experiment: cells; settings: Homo sapiens;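 further: growth inhibition of human NCI-H1048 cells, read out with a cell viability assay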
Description: SANGER: Inhibition of human NCI-H1048 cell growth in a cell viability assay.

NCI-H1666 = experiment: cells; settings: Homo sapiens;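 further: growth inhibition of the cell line, read out with a cell viability assay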
Description: SANGER: Inhibition of human NCI-H1666 cell growth in a cell viability assay.

NCI-H2029 = experiment: cells; settings: Homo sapiens;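 further: Read-out is a viability assay on the cultured cells, and IC50 is the concentration that suppresses cell growth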
Description: SANGER: Inhibition of human NCI-H2029 cell growth in a cell viability assay.

OC-314 = experiment: cells; settings: Homo sapiens
Description: SANGER: Inhibition of human OC-314 cell growth in a cell viability assay.

RH-18 = experiment: cells; settings: Homo sapiens, Rh18;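 further: growth inhibition of human RH-18 cells, read out with a cell viability assay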
Description: SANGER: Inhibition of human RH-18 cell growth in a cell viability assay.

SW 1116 = experiment: cells; settings: Homo sapiens;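 further: growth inhibition of SW1116 cells, read out with a cell viability assay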
Description: SANGER: Inhibition of human SW1116 cell growth in a cell viability assay.

SW900 = experiment: cells; settings: Homo sapiens;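 further: IC50 is the concentration that inhibits SW900 cell growth, measured by a cell viability assay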
Description: SANGER: Inhibition of human SW900 cell growth in a cell viability assay.

A549 = experiment: cells; settings: Homo sapiens;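 further: growth inhibition of A549 cells, read out with a cell viability assay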
Description: SANGER: Inhibition of human A549 cell growth in a cell viability assay.

BT-549 = experiment: cells; settings: Homo sapiens
Description: SANGER: Inhibition of human BT-549 cell growth in a cell viability assay.

TGBC11TKB = experiment: cells; settings: Homo sapiens;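 further: growth inhibition of human TGBC11TKB cells, measured by a cell viability assay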
Description: SANGER: Inhibition of human TGBC11TKB cell growth in a cell viability assay.

TI-73 = experiment: cells; settings: Homo sapiens;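 further: cell viability assay measuring how much compounds suppress growth of the cultured cell line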
Description: SANGER: Inhibition of human TI-73 cell growth in a cell viability assay.

YH-13 = experiment: cells; settings: Homo sapiens;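 further: cell viability readout of growth suppression in the human YH-13 cell line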
Description: SANGER: Inhibition of human YH-13 cell growth in a cell viability assay.

ZR-75-30 = experiment: cells; settings: Homo sapiens;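 further: growth inhibition of ZR-75-30 cells, measured with a cell viability readout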
Description: SANGER: Inhibition of human ZR-75-30 cell growth in a cell viability assay.

CFPAC-1 = experiment: cells; settings: Homo sapiens;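 further: cell viability readout used to gauge suppression of CFPAC-1 cell proliferation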
Description: SANGER: Inhibition of human CFPAC-1 cell growth in a cell viability assay.

CHP-134 = experiment: SANGER: Inhibition of human CHP-134 cell growth in a cell viability assay.
Calu-1 = experiment: SANGER: Inhibition of human Calu-1 cell growth in a cell viability assay.
Caov-3 cell line = experiment: cells; settings: Homo sapiens;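 further: cell growth inhibition read out by a viability assay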
Description: SANGER: Inhibition of human Caov-3 cell growth in a cell viability assay.

DMS-53 = experiment: cells; settings: Homo sapiens;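 further: cell viability assay measuring growth inhibition of human DMS-53 cells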
Description: SANGER: Inhibition of human DMS-53 cell growth in a cell viability assay.

EFE-184 = experiment: cells; settings: Homo sapiens
Description: SANGER: Inhibition of human EFE-184 cell growth in a cell viability assay.

EW-7 = experiment: SANGER: Inhibition of human EW-7 cell growth in a cell viability assay.
HCC1143 = experiment: cells; settings: Homo sapiens;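 further: growth inhibition of human HCC1143 cells, read out with a cell viability assay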
Description: SANGER: Inhibition of human HCC1143 cell growth in a cell viability assay.

IPC-298 = experiment: SANGER: Inhibition of human IPC-298 cell growth in a cell viability assay.
MDA-MB-468 = experiment: cells; settings: Homo sapiens
Description: SANGER: Inhibition of human MDA-MB-468 cell growth in a cell viability assay.

MES-SA = experiment: cells; settings: Homo sapiens;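 further: growth inhibition of human MES-SA cells, read out with a cell viability assay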
Description: SANGER: Inhibition of human MES-SA cell growth in a cell viability assay.

MFE-296 = experiment: SANGER: Inhibition of human MFE-296 cell growth in a cell viability assay.
NCI-H1734 = experiment: cells; settings: Homo sapiens;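 further: growth inhibition of human NCI-H1734 cells, read out with a cell viability assay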
Description: SANGER: Inhibition of human NCI-H1734 cell growth in a cell viability assay.

NCI-H2227 = experiment: cells; settings: Homo sapiens;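 further: growth inhibition of the human cell line, read out with a cell viability assay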
Description: SANGER: Inhibition of human NCI-H2227 cell growth in a cell viability assay.

NCI-H838 = experiment: cells; settings: Homo sapiens;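 further: growth inhibition of human NCI-H838 cells, read out by a cell viability assay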
Description: SANGER: Inhibition of human NCI-H838 cell growth in a cell viability assay.

PLC-PRF-5 = experiment: cells; settings: Homo sapiens;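 further: growth inhibition of human PLC-PRF-5 cells, read out with a viability assay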
Description: SANGER: Inhibition of human PLC-PRF-5 cell growth in a cell viability assay.

RT-4 = experiment: SANGER: Inhibition of human RT4 cell growth in a cell viability assay.
SK-CO-1 = experiment: cells; settings: Homo sapiens;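 further: growth inhibition of SK-CO-1 cells, determined by a viability readout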
Description: SANGER: Inhibition of human SK-CO-1 cell growth in a cell viability assay.

SNG-M = experiment: cells; settings: Homo sapiens
Description: SANGER: Inhibition of human SNG-M cell growth in a cell viability assay.

SNU-475 = experiment: cells; settings: Homo sapiens
Description: SANGER: Inhibition of human SNU-475 cell growth in a cell viability assay.

C-4-II = experiment: SANGER: Inhibition of human C-4-II cell growth in a cell viability assay.
TT = experiment: cells; settings: Homo sapiens
Description: SANGER: Inhibition of human TT cell growth in a cell viability assay.

CCF-STTG1 = experiment: cells; settings: Homo sapiens;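 further: growth inhibition of human CCF-STTG1 cells, determined with a cell viability read-out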
Description: SANGER: Inhibition of human CCF-STTG1 cell growth in a cell viability assay.

COLO 205 = experiment: cells; settings: Homo sapiens
Description: SANGER: Inhibition of human COLO-205 cell growth in a cell viability assay.

With CCNc1cc(N[C@H]2CC[C@@H](O)CC2)nc(Nc2ccc3c(ccn3Cc3ccccc3)c2)n1 the IC50 (CP67-MEL) was > 5.12 µM, the IC50 (EW-12) was > 5.12 µM and the IC50 (KP-N-RT-BM-1) was > 5.12 µM. For the same compound, the IC50 (NCI-H128) was > 5.12 µM, the IC50 (NCI-H2107) was > 5.12 µM and the IC50 (RL95-2) was 3.2 µM. The IC50 (SKM-1) was > 5.12 µM.

With O=c1cc(N2CCOCC2)oc2c(-c3cccc4c3sc3ccccc34)cccc12 the IC50 (EPLC-272H) was > 2 µM, the IC50 (H-EMC-SS) was > 2 µM and the IC50 (KNS-62) was > 2 µM. The IC50 (LU-135) was > 2 µM, the IC50 (NBsusSR) was > 2 µM and the IC50 (NCI-H1048) was > 2 µM. The IC50 (NCI-H1666) was > 2 µM, the IC50 (NCI-H2029) was > 2 µM and the IC50 (OC-314) was > 2 µM. For the same compound, the IC50 (RH-18) was > 2 µM, the IC50 (SW 1116) was > 2 µM and the IC50 (SW900) was > 2 µM. The IC50 (A549) was > 2 µM, the IC50 (BT-549) was > 2 µM and the IC50 (TGBC11TKB) was > 2 µM. The IC50 (TI-73) was > 2 µM, the IC50 (YH-13) was > 2 µM and the IC50 (ZR-75-30) was > 2 µM. For the same compound, the IC50 (CFPAC-1) was > 2 µM and the IC50 (CHP-134) was > 2 µM.

N#C/C(=C1/Nc2ccccc2S1)c1ccnc(NCCc2cccnc2)n1 was tested, and the IC50 (Calu-1) was > 8 µM, the IC50 (Caov-3 cell line) was > 8 µM and the IC50 (DMS-53) was > 8 µM. The IC50 (EFE-184) was 4.7 µM, the IC50 (EW-7) was > 8 µM and the IC50 (HCC1143) was 4.21 µM. The IC50 (IPC-298) was 7.4 µM, the IC50 (MDA-MB-468) was > 8 µM and the IC50 (MES-SA) was 4.67 µM. The IC50 (MFE-296) was 1.55 µM, the IC50 (NCI-H1734) was > 8 µM and the IC50 (NCI-H2227) was > 8 µM. For the same compound, the IC50 (NCI-H838) was > 8 µM, the IC50 (PLC-PRF-5) was > 8 µM and the IC50 (RT-4) was > 8 µM. The IC50 (SK-CO-1) was > 8 µM, the IC50 (SNG-M) was 0.98 µM and the IC50 (SNU-475) was > 8 µM. The IC50 (C-4-II) was > 8 µM, the IC50 (TT) was > 8 µM and the IC50 (CCF-STTG1) was 6.41 µM. The IC50 (COLO 205) was > 8 µM.

For COc1cc(C)c(Sc2cnc(NC(=O)c3ccc(CNC(C)C(C)(C)C)cc3)s2)cc1C(=O)N1CCN(C(C)=O)CC1 (configuration not stated), the IC50 (CP67-MEL) was > 10.2 µM, the IC50 (EW-12) was > 10.2 µM and the IC50 (KP-N-RT-BM-1) was > 10.2 µM. The IC50 (NCI-H128) was > 10.2 µM, the IC50 (NCI-H2107) was > 10.2 µM and the IC50 (RL95-2) was 4.51 µM. The IC50 (SKM-1) was > 10.2 µM.

In the case of C/C(O)=C(\C#N)C(=O)Nc1cc(Br)ccc1Br, the IC50 (Calu-1) is reported as > 16 µM, the IC50 (Caov-3 cell line) is reported as > 16 µM and the IC50 (DMS-53) is reported as > 16 µM. The IC50 (EFE-184) was > 16 µM, the IC50 (EW-7) was > 16 µM and the IC50 (HCC1143) was > 16 µM. The IC50 (IPC-298) was > 16 µM, the IC50 (MDA-MB-468) was > 16 µM and the IC50 (MES-SA) was > 16 µM. The IC50 (MFE-296) was > 16 µM, the IC50 (NCI-H1734) was > 16 µM and the IC50 (NCI-H2227) was > 16 µM. The IC50 (NCI-H838) was > 16 µM, the IC50 (PLC-PRF-5) was > 16 µM and the IC50 (RT-4) was > 16 µM. For the same compound, the IC50 (SK-CO-1) was > 16 µM, the IC50 (SNG-M) was > 16 µM and the IC50 (SNU-475) was > 16 µM. For the same compound, the IC50 (C-4-II) was > 16 µM, the IC50 (TT) was > 16 µM and the IC50 (CCF-STTG1) was > 16 µM. The IC50 (COLO 205) was > 16 µM.

In the case of Cc1n[nH]c2ccc(-c3cncc(OC[C@@H](N)Cc4c[nH]c5ccccc45)c3)cc12 [A-443654], the IC50 (CP67-MEL) is reported as 0.313 µM, the IC50 (EW-12) is reported as > 1.02 µM and the IC50 (KP-N-RT-BM-1) is reported as 0.911 µM. The IC50 (NCI-H128) was > 1.02 µM, the IC50 (NCI-H2107) was 0.958 µM and the IC50 (RL95-2) was 0.0228 µM. The IC50 (SKM-1) was > 1.02 µM.

With CC(O)(CS(=O)(=O)c1ccc(F)cc1)C(=O)Nc1ccc(C#N)c(C(F)(F)F)c1 (configuration not stated) [BICALUTAMIDE] the IC50 (Calu-1) was > 1.02 µM, the IC50 (Caov-3 cell line) was > 1.02 µM and the IC50 (DMS-53) was > 1.02 µM. For the same compound, the IC50 (EFE-184) was > 1.02 µM, the IC50 (EW-7) was > 1.02 µM and the IC50 (HCC1143) was > 1.02 µM. For the same compound, the IC50 (IPC-298) was > 1.02 µM, the IC50 (MDA-MB-468) was > 1.02 µM and the IC50 (MES-SA) was > 1.02 µM. For the same compound, the IC50 (MFE-296) was > 1.02 µM, the IC50 (NCI-H1734) was > 1.02 µM and the IC50 (NCI-H2227) was > 1.02 µM. For the same compound, the IC50 (NCI-H838) was > 1.02 µM, the IC50 (PLC-PRF-5) was > 1.02 µM and the IC50 (RT-4) was > 1.02 µM. For the same compound, the IC50 (SK-CO-1) was > 1.02 µM, the IC50 (SNG-M) was > 1.02 µM and the IC50 (SNU-475) was > 1.02 µM. The IC50 (C-4-II) was > 1.02 µM, the IC50 (TT) was > 1.02 µM and the IC50 (CCF-STTG1) was > 1.02 µM. For the same compound, the IC50 (COLO 205) was > 1.02 µM.
